Experimental data: US20040166079A1, “N-Lauroyl amino acid composition for slimming the human body” (priority 2003, published 2004)

System: normal human dermal fibroblasts
Test: Measurement in vitro of the production of hyaluronic acid (STAINS ALL, 630 nm)
Assay type: cell-based
Settings: incubation concentration 10 ng/ml; 5 days
Method: Glycosaminoglycans (GAGs) are the major proteoglycans of the dermis and play an essential role in maintaining the integrity of the skin. Hyaluronic acid is a major nonsulphated GAG which plays an essential role in the hydration of the skin by its capacity to fix up to 1000 times its weight as water. The effect of the products on the hyaluronic acid level was evaluated by a technique in vitro.
The hyaluronic acid level is measured in cultures of normal human dermal fibroblasts. The cells are incubated for 5 days in the presence of the products solubilized in the incubation medium. At the end of this incubation, the extracellular media in which the hyaluronic acid is secreted are collected. The hyaluronic acid is stained with a specific stain, STAINS ALL ((1-ethyl-2-[3-(1-ethylnaphtho-[1,2-d]thiazolin-2-ylidene)-2-methylpropenyl]naphtho-[1,2-d]thiazolium bromide, SIGMA), which interacts with it to produce a change in the absorption spectrum between 620 and 660 nm; the measurement is made by spectrophotometry. A hyaluronic acid series is prepared in parallel. […]
Evaluation of the effects: After 5 days of incubation in the presence of the products, the incubation media are collected and incubated in the presence of STAINS ALL. […] The quantification is made by spectrophotometry at 630 nm. […] The results are expressed as extracellular hyaluronic acid relative to the control.

## EGF: reference in the hyaluronic acid production test, 10 ng/ml
  Extracellular hyaluronic acid produced (% relative to the control): 133%
